Measured values: patent US9006442B2, “Cannabinoid receptor modulators” (Lupin Limited, priority 2011, dated 2015)
Like-named read-outs stand apart in the source and are kept apart here.

How the values were obtained:
[1] = molecular target: hCB2 (Homo sapiens, UniProt P34972); experiment: cAMP determination in functional hCB2-CHO stable cells (HTRF); assay type: cell-based
Protocol: In-Vitro Assay Method for Determination of cAMP in Functional hCB2—CHO Stable Cells:
Recombinant CHO-hCB2 cells (procured from Perkin Elmer Inc. USA) were propagated and maintained in Ham's F-12 complete medium containing 10% heat inactivated FBS (Sigma.UK) and 1× penstrep. For assay, 0.1×10^6 to 1.0×10^6 CHO-hCB2 cells were seeded in T-25 flask and grown to mid-log phase in culture media without antibiotics for 2-3 days. […] The test is performed in 96^1/2 area black well plates. For agonist testing, 20 μl cells/well were mixed with 20 μl of sample and 10 μl of forskolin (with final concentration of 10 μM) and incubated for 20 to 40 min at room temperature in incubator. The plate was then processed for the cAMP determination using cAMP Femto-2 HTRF kit (Cisbio, Germany) as per the manual.
The concentration of compound required to stimulate a half-maximal response (EC50) was determined using the GraphPad Prism software (version 5).

[2] = molecular target: T1, human CB1 (Homo sapiens, UniProt P21554); experiment: cAMP determination in functional hCB1-HEK stable cells (HTRF); assay type: cell-based
T1 construct: expressed in transfected cells
T1 sequence (P21554 whole entry): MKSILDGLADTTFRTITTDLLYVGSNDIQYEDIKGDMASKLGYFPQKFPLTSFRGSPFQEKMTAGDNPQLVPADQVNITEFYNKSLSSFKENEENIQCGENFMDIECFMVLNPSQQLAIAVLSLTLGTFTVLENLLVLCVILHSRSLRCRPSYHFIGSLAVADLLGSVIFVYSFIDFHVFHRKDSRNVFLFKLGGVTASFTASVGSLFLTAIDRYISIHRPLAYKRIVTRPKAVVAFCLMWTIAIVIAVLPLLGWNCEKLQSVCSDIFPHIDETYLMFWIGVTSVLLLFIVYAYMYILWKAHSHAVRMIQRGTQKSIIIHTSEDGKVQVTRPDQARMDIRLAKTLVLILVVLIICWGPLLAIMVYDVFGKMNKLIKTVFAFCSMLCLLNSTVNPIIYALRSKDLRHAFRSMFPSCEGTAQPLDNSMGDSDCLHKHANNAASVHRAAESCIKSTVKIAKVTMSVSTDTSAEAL
Protocol: In-Vitro Assay Method for Determination of cAMP in Functional hCB1—HEK Stable Cells:
U.S.A), 400 μg/ml of G418 and lx penstrep. For assay, 0.6-1.0×10^6 hCB1-HEK cells were seeded in T-25 flask and grown to mid-log phase in complete culture medium as mentioned above for 2-3 days. One day prior to assay, cell monolayer was washed once with PBS (pH.7.4) and then serum starved for overnight in DMEM medium containing 0.2% bovine serum albumin (devoid of antibiotics, FBS and penstrep). […] The test is performed in 96^1/2 area black well plates. For agonist testing, 20 μl cells/well were mixed with 20 μl of compound and 10 μl of forskolin (with final concentration of 10 μM) and incubated for 40 min at 25° C. incubator. The plates were then processed for cAMP determination using cAMP Femto-2 HTRF kit (Cisbio, Germany) as per the kit manual.

[3] = tested on: rats; experiment: FCA (Freund's Complete Adjuvant)-induced inflammatory hyperalgesia, paw withdrawal threshold, Dynamic plantar aesthesiometer; assay type: in vivo; settings: mechanical hyperalgesia 3 days post-FCA
Protocol: FCA (Freund's Complete Adjuvant)—Induced Inflammatory Hyperalgesia:
Freund's Complete Adjuvant (FCA), containing heat killed Mycobacterium tuberculosis (2 mg/ml) in incomplete Freund's adjuvant, injected (50 μl) into the plantar region of the paw of rats induces an inflammatory pain. Mechanical hyperalgesia (3 days post-FCA) was assessed by measuring hind paw withdrawal thresholds with Dynamic planter aesthesiometer.

[4] = CHO-hCB2 cells, cAMP, forskolin 10 μM, agonist testing, read-out: EC50 Range

hCB2, sequence (P34972 whole entry): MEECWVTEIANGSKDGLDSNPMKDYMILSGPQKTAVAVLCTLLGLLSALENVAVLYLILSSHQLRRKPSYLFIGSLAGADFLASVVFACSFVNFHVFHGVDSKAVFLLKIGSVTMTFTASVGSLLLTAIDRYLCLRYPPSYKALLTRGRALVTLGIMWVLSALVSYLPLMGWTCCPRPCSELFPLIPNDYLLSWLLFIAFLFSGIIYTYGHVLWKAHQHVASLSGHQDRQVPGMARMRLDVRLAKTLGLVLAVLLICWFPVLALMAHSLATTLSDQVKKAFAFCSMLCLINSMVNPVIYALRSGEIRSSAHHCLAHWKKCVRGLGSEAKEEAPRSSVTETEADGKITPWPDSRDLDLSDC

Row | Compound | EC50 [1] | EC50 [2] | other results
1 | Cc1cccc2c(Nc3cccc(Cl)c3)ncc(C(=O)N3CCOCC3)c12 [Example-1, (1-((3-Chlorophenyl)amino)-5-methylisoquinolin-4-yl)(morpholino)methanone] | < 10 nM | > 100 nM | 
2 | Cc1cccc2c(Nc3cccc(C(F)(F)F)c3)ncc(C(=O)N3CCOCC3)c12 [Example-4, (5-Methyl-1-((3-(trifluoromethyl)phenyl)amino)isoquinolin-4-yl)(morpholino)methanone] | < 10 nM |  | % Improvement (MEAN ± S.E.M.) in Paw withdrawal Threshold, 1 h ([3]; dose 10 mg/kg): 60.9 ± 12 %; % Improvement (MEAN ± S.E.M.) in Paw withdrawal Threshold, 2 h ([3]; dose 10 mg/kg): 42.9 ± 8.7 %; % Improvement (MEAN ± S.E.M.) in Paw withdrawal Threshold, 4 h ([3]; dose 10 mg/kg): 43.9 ± 17.4 %
3 | Cc1cccc2c(Nc3cccc(C(F)F)c3)ncc(C(=O)N3CCOCC3)c12 [Example-13, (1-(((3-Difluoromethyl)phenyl)amino)-5-methylisoquinolin-4-yl)(morpholino)methanone] | < 10 nM | < 100 nM | 
4 | Cc1cccc2c(Oc3ccc(F)cc3Cl)ncc(C(=O)N3CCOCC3)c12 [Example-56, (1-(2-Chloro-4-fluorophenoxy)-5-methylisoquinolin-4-yl)(morpholino)methanone] |  | > 100 nM | 
5 | Cc1cccc2c(Nc3cccc(C(F)(F)F)c3)ccc(C(=O)N3CCOCC3)c12 [Example-134] | < 10 nM |  | % Improvement (MEAN ± S.E.M.) in Paw withdrawal Threshold, 1 h ([3]; dose 10 mg/kg): 6.8 ± 8.8%; % Improvement (MEAN ± S.E.M.) in Paw withdrawal Threshold, 2 h ([3]; dose 10 mg/kg): 25.8 ± 5.2%; % Improvement (MEAN ± S.E.M.) in Paw withdrawal Threshold, 4 h ([3]; dose 10 mg/kg): −1.6 ± 8.0%
6 | Cc1cccc2c(Nc3cccc(C(F)(F)F)c3)ccc(C(=O)N3CCCCC3)c12 [Example-143] | < 10 nM |  | % Improvement (MEAN ± S.E.M.) in Paw withdrawal Threshold, 1 h ([3]; dose 10 mg/kg): 16.7 ± 15.0%; % Improvement (MEAN ± S.E.M.) in Paw withdrawal Threshold, 2 h ([3]; dose 10 mg/kg): 25.1 ± 17.8%; % Improvement (MEAN ± S.E.M.) in Paw withdrawal Threshold, 4 h ([3]; dose 10 mg/kg): 18.3 ± 18.5%
7 | Cc1c(Cl)cccc1Nc1ccc(C(=O)N2CCOCC2)c2c(C)cccc12 [Example-155, (4-((3-Chloro-2-methylphenyl)amino)-8-methylnaphthalen-1-yl)(morpholino)methanone] | < 10 nM | < 100 nM | 
8 | O=C(c1ccc(Nc2cccc(Cl)c2)c2ccccc12)N1CCOCC1 [Example-179, (4-((3-Chlorophenyl)amino)naphthalen-1-yl)(morpholino)methanone] | < 10 nM | > 100 nM | 
9 | O=C(c1ccc(Nc2cccc(F)c2)c2ccccc12)N1CCOCC1 [Example-183, (4-((3-Fluorophenyl)amino)naphthalen-1-yl)(morpholino)methanone] | 10 to 1000 nM | > 100 nM | 
10 | O=C(c1cnc(Nc2cccc(Cl)c2)c2cccc(Cl)c12)N1CCCCC1 [Example-218, (5-Chloro-1-((3-chlorophenyl)amino)isoquinolin-4-yl)(piperidin-1-yl)methanone] |  | < 100 nM | 
11 | Cc1cccc2c(Nc3cc(F)cc(F)c3)ncc(CN3CCOCC3)c12 [Example-225, N-(3,5-difluorophenyI)-5-methyl-4-(morpholinomethyl)isoquinolin-1-amine] |  | < 100 nM | 
12 | Cc1cccc2c(Nc3cccc(Cl)c3)ncc(C(=O)N3CCC(F)(F)CC3)c12 [Example-241, (1-((3-Chlorophenyl)amino)-5-methylisoquinolin-4-yl)(4,4-difluoropiperidin-1-yl)methanone] |  | < 100 nM | 
13 | Cc1cccc2c(Nc3cccc(C(F)(F)F)c3F)ncc(C(=O)N(C)C)c12 [Example-257, 1-((2-Fluoro-3-(trifluoromethyl)phenyl)amino)-N,N,5-trimethyl isoquinolin-4-carboxamide] |  |  | EC50 [1, 4]: < 10 nM; % Improvement (MEAN ± S.E.M.) in Paw withdrawal Threshold, 1 h ([3]; dose 30 mg/kg): 44.4 ± 23.3%; % Improvement (MEAN ± S.E.M.) in Paw withdrawal Threshold, 2 h ([3]; dose 30 mg/kg): 52.8 ± 19.1%
14 | CCN(C)C(=O)c1ccc(Nc2cccc(C)c2C)c2cccc(C)c12 [compound 453, 4-((2,3-Dimethylphenyl)amino)-N-ethyl-N,8-dimethyl-1-naphthamide] |  |  | EC50 [1, 4]: < 10 nM
15 | CCN(C)C(=O)c1ccc(Nc2cccc(Cl)c2C)c2cccc(C)c12 [compound 456, 4-((3-Chloro-2-methylphenyl)amino)-N-ethyl-N,8-dimethyl-1-naphthamide] |  |  | EC50 [1, 4]: < 10 nM
